Results on one compound are retold here after patent publication US12178817B2, “Compounds for enhancing PPARγ expression and nuclear translocation and therapeutic use thereof” (REALINN LIFE SCIENCE LIMITED, priority 2015, dated 2024).

The nature of data set [1]: Non-invasive blood pressure measurement in mice after intravenous administration. Conditions: high dose.
A further data set deals with PPARγ. Description: Expression of PPARγ in HEK293 cells treated with LPS and dipyridamole (Western blot of nuclear proteins). Format: cell-based, human. For orientation: A western blot detects proteins with antibodies after separation by electrophoresis.
Data set [2] has as its system mice with LPS-induced sepsis. Description: Survival rate analysis in mice with LPS-induced sepsis. As to conditions: high dose. Type of data set: in vivo.
Description: Male C57Bl/6J mice, 8-12 weeks of age, were used in this study. They were reared in an air-conditioned environment with 6 am to 18 pm light cycle and fed standard rodent chow ad libitum. […] First, mice were injected intraperitoneally with LPS (16 mg/kg) and followed for 72 hours to observe the survival rate.

Description for PPARγ: The cell line used in the assay was human embryonic kidney cells, HEK293. The cells were collected at 0 h, 3 h and 12 h after treatment. The collected cells were washed with 150 μL Buffer A (10 mM Hepes pH=7.9, 1.5 mM MgCl2, 10 mM KCl, 1.0 mM DTT, 0.1% Triton-X 100), and centrifuged at 3000 g for 10 minutes at 4° C. Supernatant containing cytosolic proteins was collected, and the pellets were re-suspended with 50 μL Buffer B (20 mM Hepes pH=7.9, 1.5 mM MgCl2, 0.42M NaCl, 1.0 mM DTT, 1.0M PMSF, 0.2 mM EDTA) and incubated on ice for 30 minutes followed by centrifuging at 12000 g for 10 minutes at 4° C. Supernatant containing nucleic proteins was then collected, and the expression of P65 protein, which is indicative of the activation of PPARγ, was analyzed using Western blotting. The method is as follows: Protein concentration was measured using Bradford assay. 6× sample buffer (0.8 mM Tris-HCl, 10 mM EDTA, 10% SDS, 60% glycerol, 0.6 M β-mercaptoethano, 0.06% bromophenol blue, pH 6.8) was added into 50 μg of nuclear proteins and an equal volume of lysis buffer was added into the samples. After being heated at 95° C. for 10 minutes to denature the proteins, the samples were immediately cooled on ice. […] Photos of the images were taken using automated chemiluminescence and fluorescence imaging system (UVP Biospectrum). […]

With `OCCN(CCO)c1nc(N2CCCCC2)c2nc(N(CCO)CCO)nc(N3CCCCC3)c2n1` [dipyridamole], in data set [1], the “effect on blood pressure” value is “leads to changes in blood pressure”. In addition, the “PPARγ expression and nuclear translocation” value in the data set with PPARγ is “promote PPARγ expression and nuclear translocation”. Also, the “effect on physiological conditions and survival rate” value in data set [2] is “influences physiological conditions and survival rate”.
